# Test results from US4946964A, “Photographic compounds” (Polaroid Corporation, priority 1987, dated 1990).
# Legend:
# [1] = Arrhenius activation energy (Ea) of release of the PHOTO moiety; type: physicochemical; settings: log of observed rate constant vs 1/T (° K.)
# Procedure: The rate at which the release reaction increases with temperature is a function of the activation energy. For example, for an increase in temperature from 20° C. to 30° C., it hs been calculated that the reaction rate will increase by a factor of 2 when Ea is 12.2, by a factor of about 3 when Ea is 19.3, by a factor of about 4 when Ea is 24.4 and by a factor of about 5 when Ea is 28.3. […] Typically, for such release reactions with other compounds, when the room temperature release rate is relatively fast, the activation energy tends to be about 10. Accordingly, it is possible to select, according to the invention, for a particular photographic system a compound which has a desired release rate at room temperature, a much slower release rate at lower temperatures and a much higher release rate at higher temperatures.
# The Arrhenius activation energy (Ea) was calculated by plotting the log of the observed rate constant vs 1/T (° K.) for each compound.
# [2] = release kinetics: t1/2 for cleavage with release of the PHOTO moiety in alkaline solution; type: physicochemical; settings: 1×10^-4 molar, 30% acetonitrile/0.25N aqueous potassium hydroxide, 22°+0.1° C., 100 µM
# Text: The rate of release of the PHOTO moiety is dependent upon a number of factors. […] The release rate is also dependent upon the hydroxyl ion concentration of the alkaline medium. […] The rate of release is also temperature dependent, that is, the rate increases as the temperature at which processing of the film unit is effected increases. Thus, where PHOTO is a photographic reagent residue for example, the compounds which are utilized according to the invention can provide more uniform sensitometry for the film units of the invention over a wide temperature range of processing. In other words, the sensitometry of such film units can be less temperature dependent than would otherwise be the case.
# The release kinetics of the compounds of the invention vary over a wide range. The t1/2 times in solution, i.e., the time required for one-half of the material to undergo cleavage with release of the PHOTO moiety, for some of the compounds illustrated above are shown in Table I. The values were obtained using 1×10^-4 molar concentrations in 30% acetonitrile/0.25N aqueous potassium hydroxide solution at a temperature of 22°+0.1° C.
Structure (SMILES),t1/2 [2] [s],t1/2 ([2]; syn isomer) [s],Arrhenius activation energy (Ea) [1] [kcal/mol]
CC(CSc1nnnn1-c1ccc(O)cc1)=NO [V],40.5,,
NC(CSc1nnnn1-c1ccccc1)=NO [XIII],546.0,,
ON=CCSc1nnnn1-c1ccccc1 [VIII],49.1,1020.0,
CC(CSc1nnnn1-c1ccc(C(C)=NO)cc1)=NO [VI],28.9,,
ON=C(CSc1nnnn1-c1ccc(O)cc1)CSc1nnnn1-c1ccc(O)cc1 [Compound I],51.1,,21.8
CC(CSc1nnnn1-c1ccccc1)=NO [IX],22.5,,26.5
ON=C(CSc1nnnn1-c1ccccc1)CSc1nnnn1-c1ccccc1 [III],8.9,,
ON=C(CSc1nnnn1-c1ccccc1)c1ccccc1 [VII],4 to 6,,

# Continued, in another order:
t1/2 [2] [s],t1/2 ([2]; syn isomer) [s],Structure (SMILES),Arrhenius activation energy (Ea) [1] [kcal/mol]
4.3,,COc1ccc(C(CSc2nnnn2-c2ccccc2)=NO)cc1 [X],21.9
165.0,,Cc1ccc(S(=O)(=O)NN=C(CSc2nnnn2-c2ccccc2)c2ccccc2)cc1 [XII],
7.6,,CS(=O)(=O)Nc1ccc(C(CSc2nnnn2-c2ccccc2)=NO)cc1 [XI],
